Laboratory results from patent US20230128372A1 (EXCALIBUR MEDICINES LIMITED, priority 2020, published 2023).

What was measured:
[1] = system: normo-glycaemic insulin resistant rats; conditions: dosed acutely and once daily for up to 28 days, rapid onset of action; cited from earlier work
[2] = system: hospitalised diabetic patients with known or suspected COVID-19; conditions: 60 patients, test and control group combined (blinded); 12 deaths expected from Coronad study
diabetic mice = conditions: dosed acutely and once daily for up to 28 days, rapid onset of action; cited from earlier work
healthy animals = conditions: cited from earlier work
human hepatocytes = conditions: cited from earlier work
rat glucokinase = target: T1, rat glucokinase (Rattus norvegicus, UniProt P17712); conditions: read-out: EC50 activation of glucokinase; recombinant rat enzyme, in vitro; cited from earlier work
T1 sequence (P17712 1-465): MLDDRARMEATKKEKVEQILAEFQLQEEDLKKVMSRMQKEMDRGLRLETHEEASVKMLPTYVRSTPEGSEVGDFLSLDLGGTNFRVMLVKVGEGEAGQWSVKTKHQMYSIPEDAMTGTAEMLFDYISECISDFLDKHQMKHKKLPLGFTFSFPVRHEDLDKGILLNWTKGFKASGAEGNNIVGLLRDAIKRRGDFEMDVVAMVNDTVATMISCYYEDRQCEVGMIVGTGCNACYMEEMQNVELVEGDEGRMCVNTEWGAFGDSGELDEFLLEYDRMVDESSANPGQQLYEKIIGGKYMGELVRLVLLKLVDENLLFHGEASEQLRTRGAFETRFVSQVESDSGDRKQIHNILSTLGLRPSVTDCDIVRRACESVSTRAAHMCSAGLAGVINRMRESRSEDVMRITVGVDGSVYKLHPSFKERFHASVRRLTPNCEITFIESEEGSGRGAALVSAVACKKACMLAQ

rat hepatocytes = conditions: cited from earlier work
human glucokinase = human glucokinase (Homo sapiens, UniProt P35557); conditions: read-out: EC50 activation of glucokinase; recombinant human enzyme, in vitro; cited from earlier work
[3] = system: healthy, non-diabetic patients; conditions: doses of 40 mg or 80 mg; hypoglycaemia defined as 2.7 mmol/l; cited from earlier work
[4] = system: Japanese type 2 diabetic subjects; conditions: cited from earlier work

human glucokinase, sequence (P35557 whole entry): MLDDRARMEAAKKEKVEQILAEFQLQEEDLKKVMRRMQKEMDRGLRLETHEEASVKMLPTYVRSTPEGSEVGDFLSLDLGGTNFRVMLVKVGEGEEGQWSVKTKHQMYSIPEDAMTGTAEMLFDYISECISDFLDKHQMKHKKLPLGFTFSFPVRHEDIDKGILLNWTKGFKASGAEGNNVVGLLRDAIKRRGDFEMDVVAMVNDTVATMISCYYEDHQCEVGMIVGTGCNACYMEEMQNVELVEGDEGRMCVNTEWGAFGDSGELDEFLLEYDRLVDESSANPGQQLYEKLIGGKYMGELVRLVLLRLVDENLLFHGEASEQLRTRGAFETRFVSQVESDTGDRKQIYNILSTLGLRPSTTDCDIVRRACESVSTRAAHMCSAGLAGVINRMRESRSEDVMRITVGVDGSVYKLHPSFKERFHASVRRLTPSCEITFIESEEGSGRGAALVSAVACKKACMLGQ

For `COC[C@H](C)Oc1cc(Oc2cnc(C(=O)N3CCC3)cn2)cc(C(=O)Nc2cnc(C)cn2)c1` [AZD1656, 3-{[5-(Azetidin-1-ylcarbonyl)pyrazin-2-yl]oxy}-5-{[(1S)-1-methyl-2-(methyloxy)ethyl]oxy}-N-(5-methylpyrazin-2-yl)benzamide], the plasma glucose levels [1] is given as “reduces plasma glucose levels in a dose-dependent fashion”, the “deaths among patients who completed the trial protocol” value [2] is given as 5 and the plasma glucose levels (diabetic mice) is given as “reduces plasma glucose levels in a dose-dependent fashion”. For the same molecule, the “changes in the liver, considered secondary to hypoglycaemia” value (healthy animals; healthy animals, chronic toxicology studies) was “loss of hepatocellular glycogen”, the chronic toxicology findings (healthy animals; healthy animals, higher doses, up to 12 months) was “severe hypoglycaemia at higher doses and sequalae such as Wallerian type nerve degeneration and skeletal muscle fibre degeneration” and the glucose lowering effect (healthy animals; preclinical studies of up to 12-month duration) was “potent glucose lowering effect”. For the same molecule, the EC50 (human hepatocytes) was 1.39 µM, the EC50 (rat glucokinase) was 0.072 µM and the EC50 (rat hepatocytes) was 0.47 µM. The EC50 (human glucokinase) was 0.057 µM, the hypoglycaemia [3] was “not to cause hypoglycaemia” and the “HbA1c and fasting plasma glucose (FPG) levels” value ([4]; BID at high (40-200 mg/day), medium (20-140 mg/day) and low (10-80 mg/day) doses over 4 months) was “found to lower HbA1c and fasting plasma blood (FPG) glucose levels”. For the same molecule, the “change in HbA1c or FPG from baseline” value ([4]; at 4 months) was “no statistically significant change” and the “time course of HbA1c/FPG effect” value ([4]; between weeks 8 and 16) was “transient trending towards pre-dose levels”.
